# Assay results published in patent US20100316529A1, “Anti-Microbial Systems and Methods” (priority 2001, published 2010).
# Where “and” joins values, the source holds several entries; their conditions need not be identical. Equal entries are not always repeated.
# Key:
# [1] = system: Kleb. ornitholytica; assay: EDTA salt dilution test, MIC/MBC; type: cell-based
# [2] = system: Cornyeform amycolatum; assay: EDTA salt dilution test, MIC/MBC; type: cell-based
# [3] = system: S. simulans; assay: EDTA salt dilution test, MIC/MBC; type: cell-based
# [4] = system: VRE; assay: EDTA salt dilution test, MIC/MBC; type: cell-based; details: two entries
# [5] = system: S. xylosus; assay: EDTA salt dilution test, MIC/MBC; type: cell-based
# [6] = system: S. aureus; assay: EDTA salt dilution test, MIC/MBC; type: cell-based; details: five entries, Exhibit A2
# [7] = system: S. epidermidis; assay: EDTA salt dilution test, MIC/MBC; type: cell-based; details: two entries
# [8] = system: Proteus mirabilis; assay: EDTA salt dilution test, MIC/MBC; type: cell-based; details: two entries
# [9] = system: Pseudomonas aeruginosa; assay: EDTA salt dilution test, MIC/MBC; type: cell-based; details: two entries
# [10] = system: Pseudomonas sp.; assay: EDTA salt dilution test, MIC/MBC; type: cell-based
# [11] = system: MRSA; assay: EDTA salt dilution test, MIC/MBC; type: cell-based; details: five entries, Exhibit A2
# [12] = system: S. capitis; assay: EDTA salt dilution test, MIC/MBC; type: cell-based; details: two entries, Exhibit A2
# [13] = system: Ent. faecalis; assay: EDTA salt dilution test, MIC/MBC; type: cell-based
# [14] = system: S. lentus; assay: EDTA salt dilution test, MIC/MBC; type: cell-based
# [15] = system: Kleb. pnemoniae; assay: EDTA salt dilution test, MIC/MBC; type: cell-based; details: two entries
# [16] = system: C. tropicalis; assay: EDTA agar dilution method, yeasts, MIC/MBC; type: cell-based; details: Exhibit C
# Protocol: (§1) The bactericidal effects were measured as the Minimum Bactericidal Concentration (MBC), while the inhibitory effects were measured as the Minimum Inhibitory Concentration (MIC). In each case, the concentration was measured as milligrams of the disinfectant salt per milliliter of water (mg/ml).
# (§2) Protocol 3: Agar dilutions.
# (§3) Prepare nutrient agar plates with increasing concentrations of EDTA, 0, 0.5, 1, 1.5, 2, 4, 6, 8, 10, 15, 20, 25, 30 mg/mL, using the following method. • Pour 300 mL distilled water into a sterile glass bottle. • Add the appropriate amount of EDTA. This is the concentration desired ×300, in grams. • Once the EDTA has fully dissolved, add 8.4 g of Nutrient agar powder (Oxoid). Mix thoroughly. • Do this for each concentration of EDTA required. […] Do this until all the media is used up. Label the plates with the concentration of EDTA they contain. • These plates can then be stored, until they are needed, in a 4° C. fridge. • Use an automatic plate inoculator to inoculate each plate with 21 organisms.
# [17] = system: C. parapsilosis; assay: EDTA agar dilution method, yeasts, MIC/MBC; type: cell-based; details: Exhibit C
# Protocol: as §1, §2, §3
# [18] = system: C. albicans; assay: EDTA agar dilution method, yeasts, MIC/MBC; type: cell-based; details: three entries, Exhibit C
# Protocol: as §1, §2, §3
# [19] = system: C. glabrata; assay: EDTA agar dilution method, yeasts, MIC/MBC; type: cell-based; details: two entries, Exhibit C
# Protocol: as §1, §2, §3
# [20] = system: C. guilliermondii; assay: EDTA agar dilution method, yeasts, MIC/MBC; type: cell-based; details: Exhibit C
# Protocol: as §1, §2, §3
# [21] = system: variety of yeasts
# [22] = system: Ent. cloacae; assay: EDTA salt dilution test, MIC/MBC; type: cell-based; details: three entries
# [23] = system: Steno. maltophilia; assay: EDTA salt dilution test, MIC/MBC; type: cell-based
# [24] = system: Proteus vulgaris; assay: EDTA salt dilution test, MIC/MBC; type: cell-based
# [25] = system: Coryneform strait/amy; assay: EDTA salt dilution test, MIC/MBC; type: cell-based
# [26] = system: C. lucitaniae; assay: EDTA agar dilution method, yeasts, MIC/MBC; type: cell-based; details: Exhibit C
# Description: as §2
# Do this until all the media is used up.
# [27] = system: Ent. faeculm; assay: EDTA salt dilution test, MIC/MBC; type: cell-based
# [28] = system: Acinetobacter baumanii; assay: EDTA salt dilution test, MIC/MBC; type: cell-based; details: two entries, Exhibit A2
# [29] = system: Kleb. oxytoca; assay: EDTA salt dilution test, MIC/MBC; type: cell-based
smiles,measurement,setting,value
O=C([O-])CN(CCN(CC(=O)[O-])CC(=O)[O-])CC(=O)[O-].[Na+].[Na+].[Na+].[Na+] [Tetrasodium EDTA],"MBC, minimum concentration required to kill an entire population",[1]; Exhibit A1,30000 µg/mL
same,"MIC, minimum concentration required to inhibit growth",[1]; Exhibit A2,4000 µg/mL
same,"MBC, minimum concentration required to kill an entire population",[2]; Exhibit A1,<500 µg/mL
same,"MIC, minimum concentration required to inhibit growth",[2]; Exhibit A2,<500 µg/mL
same,"MBC, minimum concentration required to kill an entire population",[3]; Exhibit A1,30000 µg/mL
same,"MIC, minimum concentration required to inhibit growth",[3]; Exhibit A2,1000 µg/mL
same,"MBC, minimum concentration required to kill an entire population",[4]; Exhibit A1,15000 µg/mL and >30000 µg/mL
same,"MIC, minimum concentration required to inhibit growth",[4]; Exhibit A2,1000 µg/mL
same,"MBC, minimum concentration required to kill an entire population",[5]; Exhibit A1,25000 µg/mL
same,"MIC, minimum concentration required to inhibit growth",[5]; Exhibit A2,<500 µg/mL
same,"MIC, minimum concentration required to inhibit growth",[6],<500 µg/mL and 1000 µg/mL
same,"MBC, minimum concentration required to kill an entire population",[7]; Exhibit A1,1000 µg/mL and 2000 µg/mL
same,"MIC, minimum concentration required to inhibit growth",[7]; Exhibit A2,1000 µg/mL
same,"MBC, minimum concentration required to kill an entire population",[8]; Exhibit A1,20000 µg/mL
same,"MIC, minimum concentration required to inhibit growth",[8]; Exhibit A2,1000 µg/mL
same,"MBC, minimum concentration required to kill an entire population",[9]; Exhibit A1,20000 µg/mL
same,"MIC, minimum concentration required to inhibit growth",[9]; Exhibit A2,2000 µg/mL
same,"MBC, minimum concentration required to kill an entire population",[10]; Exhibit A1,30000 µg/mL
same,"MIC, minimum concentration required to inhibit growth",[10]; Exhibit A2,2000 µg/mL
same,"MIC, minimum concentration required to inhibit growth",[11],1000 µg/mL
same,"MIC, minimum concentration required to inhibit growth",[12],1000 µg/mL and <500 µg/mL
same,"MBC, minimum concentration required to kill an entire population",[13]; Exhibit A1,10000 µg/mL
same,"MIC, minimum concentration required to inhibit growth",[13]; Exhibit A2,1000 µg/mL
same,"MBC, minimum concentration required to kill an entire population",[14]; Exhibit A1,30000 µg/mL
same,"MIC, minimum concentration required to inhibit growth",[14]; Exhibit A2,1000 µg/mL
same,"MBC, minimum concentration required to kill an entire population",[15]; Exhibit A1,15000 µg/mL
same,"MIC, minimum concentration required to inhibit growth",[15]; Exhibit A2,8000 µg/mL and 4000 µg/mL
same,"MBC's, Minimum Bactericidal Concentration",[16],10000 µg/mL
same,"MIC's, Minimum Inhibitory Concentration",[16],500 µg/mL
same,"MBC's, Minimum Bactericidal Concentration",[17],8000 µg/mL
same,"MIC's, Minimum Inhibitory Concentration",[17],500 µg/mL
same,"MIC's, Minimum Inhibitory Concentration",[18],500 µg/mL
same,"MIC's, Minimum Inhibitory Concentration",[19],500 µg/mL
same,"MBC's, Minimum Bactericidal Concentration",[20],500 µg/mL
same,"MIC's, Minimum Inhibitory Concentration",[20],500 µg/mL
same,MIC values compared with the other two EDTA compounds,[21]; Exhibit C,lower than the MIC values for the other two EDTA compounds
same,MBC values against yeasts compared with bacteria,[21]; Exhibit C versus Gram negative and Gram positive organisms,comparable to the MBC values for the Gram negative and Gram positive organisms
same,"MBC, minimum concentration required to kill an entire population",[22]; Exhibit A1,20000 µg/mL
same,"MIC, minimum concentration required to inhibit growth",[22]; Exhibit A2,8000 µg/mL and 10000 µg/mL
same,"MBC, minimum concentration required to kill an entire population",[23]; Exhibit A1,4000 µg/mL
same,"MIC, minimum concentration required to inhibit growth",[23]; Exhibit A2,1000 µg/mL
same,"MBC, minimum concentration required to kill an entire population",[24]; Exhibit A1,20000 µg/mL
same,"MIC, minimum concentration required to inhibit growth",[24]; Exhibit A2,4000 µg/mL
same,"MBC, minimum concentration required to kill an entire population",[25]; Exhibit A1,<500 µg/mL
same,"MIC, minimum concentration required to inhibit growth",[25]; Exhibit A2,<500 µg/mL
same,"MBC's, Minimum Bactericidal Concentration",[26],6000 µg/mL
same,"MIC's, Minimum Inhibitory Concentration",[26],500 µg/mL
same,"MIC, minimum concentration required to inhibit growth","[27]; Ent. faecuim, Exhibit A2",<500 µg/mL
same,"MBC, minimum concentration required to kill an entire population","[27]; Ent. faeculm, Exhibit A1",>30000 µg/mL
same,"MIC, minimum concentration required to inhibit growth",[28],<500 µg/mL and 1000 µg/mL
same,"MBC, minimum concentration required to kill an entire population",[29]; Exhibit A1,8000 µg/mL
same,"MIC, minimum concentration required to inhibit growth",[29]; Exhibit A2,4000 µg/mL
